Assay results reported in article PMC5206433 (BioMed Research International, 2016).

Biological target: integrin αIIbβ3 (Homo sapiens, UniProt P05106+P08514)
Assay type: binding

integrin αIIbβ3, sequence (P08514 32-887): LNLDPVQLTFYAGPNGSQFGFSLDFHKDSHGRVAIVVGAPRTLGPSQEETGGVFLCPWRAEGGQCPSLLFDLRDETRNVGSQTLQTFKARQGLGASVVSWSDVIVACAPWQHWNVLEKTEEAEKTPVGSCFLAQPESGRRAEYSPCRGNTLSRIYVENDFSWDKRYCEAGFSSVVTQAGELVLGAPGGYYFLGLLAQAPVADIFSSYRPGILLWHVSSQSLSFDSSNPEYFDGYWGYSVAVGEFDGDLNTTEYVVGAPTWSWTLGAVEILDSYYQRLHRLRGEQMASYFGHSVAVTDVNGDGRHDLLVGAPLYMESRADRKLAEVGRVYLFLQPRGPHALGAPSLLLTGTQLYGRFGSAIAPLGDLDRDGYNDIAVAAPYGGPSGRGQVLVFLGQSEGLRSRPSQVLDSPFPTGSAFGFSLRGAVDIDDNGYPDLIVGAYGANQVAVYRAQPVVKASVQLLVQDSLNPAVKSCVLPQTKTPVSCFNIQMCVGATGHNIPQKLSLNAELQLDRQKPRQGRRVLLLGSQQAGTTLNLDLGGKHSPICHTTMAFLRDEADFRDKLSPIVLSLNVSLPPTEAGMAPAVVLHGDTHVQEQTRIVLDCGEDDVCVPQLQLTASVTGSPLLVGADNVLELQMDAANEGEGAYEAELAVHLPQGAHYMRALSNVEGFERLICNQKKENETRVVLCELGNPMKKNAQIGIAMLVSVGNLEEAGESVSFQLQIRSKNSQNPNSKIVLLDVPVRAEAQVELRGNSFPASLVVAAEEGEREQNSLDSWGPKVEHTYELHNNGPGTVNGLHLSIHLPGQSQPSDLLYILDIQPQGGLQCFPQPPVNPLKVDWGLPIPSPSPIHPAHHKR
integrin αIIbβ3, sequence (P08514 891-1039): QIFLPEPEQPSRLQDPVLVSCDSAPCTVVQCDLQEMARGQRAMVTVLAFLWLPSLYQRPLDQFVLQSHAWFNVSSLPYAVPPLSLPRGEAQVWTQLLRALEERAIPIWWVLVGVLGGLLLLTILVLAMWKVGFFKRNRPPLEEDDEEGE
integrin αIIbβ3, sequence (P05106 27-788): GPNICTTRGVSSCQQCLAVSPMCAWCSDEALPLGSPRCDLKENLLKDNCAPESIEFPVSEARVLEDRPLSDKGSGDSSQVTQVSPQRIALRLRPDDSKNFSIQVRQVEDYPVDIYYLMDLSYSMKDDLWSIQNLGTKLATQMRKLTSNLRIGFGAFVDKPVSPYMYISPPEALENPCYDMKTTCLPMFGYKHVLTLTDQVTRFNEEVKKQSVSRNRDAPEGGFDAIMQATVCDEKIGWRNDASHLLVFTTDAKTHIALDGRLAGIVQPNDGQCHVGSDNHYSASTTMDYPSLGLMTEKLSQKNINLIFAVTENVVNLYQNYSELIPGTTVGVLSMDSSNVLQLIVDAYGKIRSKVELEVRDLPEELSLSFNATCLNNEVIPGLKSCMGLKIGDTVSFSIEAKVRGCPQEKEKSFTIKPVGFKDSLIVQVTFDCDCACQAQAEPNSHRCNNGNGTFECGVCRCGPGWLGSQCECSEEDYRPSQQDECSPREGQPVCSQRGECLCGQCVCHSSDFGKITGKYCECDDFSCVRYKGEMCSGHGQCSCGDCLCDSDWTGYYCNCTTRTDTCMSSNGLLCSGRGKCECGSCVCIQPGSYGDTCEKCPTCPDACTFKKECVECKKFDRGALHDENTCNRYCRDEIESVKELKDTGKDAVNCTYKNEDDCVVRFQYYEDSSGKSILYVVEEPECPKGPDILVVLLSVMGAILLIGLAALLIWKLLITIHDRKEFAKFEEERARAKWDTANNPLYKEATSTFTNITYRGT

CCCC(=O)NC(Cc1ccc2cc(OCc3ccc(C(=N)N)cc3)ccc2c1)C(=O)O (stereo not shown) [ND-1, 2-butyramido-3-(6-((4-carbamimidoylbenzyl)oxy)naphthalen-2-yl)propanoic acid]
IC50: 3.12 µM
